Measurements from ChEMBL document CHEMBL4017512 (J Med Chem, 2017).

Legend:
HCT-116 = assay: Antiproliferative activity against human HCT116 cells after 72 hrs by phosphatase assay; type: functional, cell-based; settings: HCT-116, 72 h
[1] = Cytotoxicity against human HCT116/VM46 cells assessed as reduction in cell viability after 72 hrs by phosphatase assay; type: cell-based; settings: HCT-116/VM46, 72 h
L1210 = assay: Antiproliferative activity against mouse L1210 cells after 72 hrs by phosphatase assay; type: functional, cell-based; settings: L1210, 72 h

IC50 (HCT-116) [nM] | IC50 (L1210) [nM] | Structure (SMILES) | IC50 [1] [nM]
10 | 30 | CC[C@]1(NC(=O)c2ccccc2OC)C[C@H]2CN(CCc3c([nH]c4ccccc34)[C@@](C(=O)OC)(c3cc4c(cc3OC)N(C)[C@H]3[C@@](O)(C(=O)OC)[C@H](OC(C)=O)[C@]5(CC)C=CCN6CC[C@]43[C@@H]65)C2)C1 | 100
4.9 | 4.2 | CC[C@]1(NC(=O)c2ccc3sccc3c2)C[C@H]2CN(CCc3c([nH]c4ccccc34)[C@@](C(=O)OC)(c3cc4c(cc3OC)N(C)[C@H]3[C@@](O)(C(=O)OC)[C@H](OC(C)=O)[C@]5(CC)C=CCN6CC[C@]43[C@@H]65)C2)C1 | 16
1.1 | 1.8 | CC[C@]1(NC(=O)c2cc3ccccc3o2)C[C@H]2CN(CCc3c([nH]c4ccccc34)[C@@](C(=O)OC)(c3cc4c(cc3OC)N(C)[C@H]3[C@@](O)(C(=O)OC)[C@H](OC(C)=O)[C@]5(CC)C=CCN6CC[C@]43[C@@H]65)C2)C1 | 15
0.7 | 0.6 | CC[C@]1(NC(=O)c2ccc(C)c(N)c2)C[C@H]2CN(CCc3c([nH]c4ccccc34)[C@@](C(=O)OC)(c3cc4c(cc3OC)N(C)[C@H]3[C@@](O)(C(=O)OC)[C@H](OC(C)=O)[C@]5(CC)C=CCN6CC[C@]43[C@@H]65)C2)C1 | 25
6.2 | 3.9 | CCOc1ccc(C(=O)N[C@@]2(CC)C[C@H]3CN(CCc4c([nH]c5ccccc45)[C@@](C(=O)OC)(c4cc5c(cc4OC)N(C)[C@H]4[C@@](O)(C(=O)OC)[C@H](OC(C)=O)[C@]6(CC)C=CCN7CC[C@]54[C@@H]76)C3)C2)cc1Br | 50
420 | 360 | CC[C@]1(NS(=O)(=O)c2ccccc2[N+](=O)[O-])C[C@H]2CN(CCc3c([nH]c4ccccc34)[C@@](C(=O)OC)(c3cc4c(cc3OC)N(C)[C@H]3[C@@](O)(C(=O)OC)[C@H](OC(C)=O)[C@]5(CC)C=CCN6CC[C@]43[C@@H]65)C2)C1 | 440
6.2 | 4.8 | CC[C@]1(NC(=O)c2ccc(C#N)c(C)c2)C[C@H]2CN(CCc3c([nH]c4ccccc34)[C@@](C(=O)OC)(c3cc4c(cc3OC)N(C)[C@H]3[C@@](O)(C(=O)OC)[C@H](OC(C)=O)[C@]5(CC)C=CCN6CC[C@]43[C@@H]65)C2)C1 | 65
0.7 | 0.7 | CC[C@]1(NC(=O)c2ccco2)C[C@H]2CN(CCc3c([nH]c4ccccc34)[C@@](C(=O)OC)(c3cc4c(cc3OC)N(C)[C@H]3[C@@](O)(C(=O)OC)[C@H](OC(C)=O)[C@]5(CC)C=CCN6CC[C@]43[C@@H]65)C2)C1 | 12
1.4 | 1.8 | CC[C@]1(NC(=O)c2ccc(F)cc2)C[C@H]2CN(CCc3c([nH]c4ccccc34)[C@@](C(=O)OC)(c3cc4c(cc3OC)N(C)[C@H]3[C@@](O)(C(=O)OC)[C@H](OC(C)=O)[C@]5(CC)C=CCN6CC[C@]43[C@@H]65)C2)C1 | 25
6.3 | 5 | CC[C@]1(NC(=O)c2cccc(Br)c2)C[C@H]2CN(CCc3c([nH]c4ccccc34)[C@@](C(=O)OC)(c3cc4c(cc3OC)N(C)[C@H]3[C@@](O)(C(=O)OC)[C@H](OC(C)=O)[C@]5(CC)C=CCN6CC[C@]43[C@@H]65)C2)C1 | 60
0.7 | 0.6 | CC[C@]1(NC(=O)/C=C/c2ccncc2)C[C@H]2CN(CCc3c([nH]c4ccccc34)[C@@](C(=O)OC)(c3cc4c(cc3OC)N(C)[C@H]3[C@@](O)(C(=O)OC)[C@H](OC(C)=O)[C@]5(CC)C=CCN6CC[C@]43[C@@H]65)C2)C1 | 50
> 10000 | 4200 | CC[C@]1(NC(=O)C2CCNCC2)C[C@H]2CN(CCc3c([nH]c4ccccc34)[C@@](C(=O)OC)(c3cc4c(cc3OC)N(C)[C@H]3[C@@](O)(C(=O)OC)[C@H](OC(C)=O)[C@]5(CC)C=CCN6CC[C@]43[C@@H]65)C2)C1 | > 10000
6.4 | 4.2 | CCc1cc(CC)cc(C(=O)N[C@@]2(CC)C[C@H]3CN(CCc4c([nH]c5ccccc45)[C@@](C(=O)OC)(c4cc5c(cc4OC)N(C)[C@H]4[C@@](O)(C(=O)OC)[C@H](OC(C)=O)[C@]6(CC)C=CCN7CC[C@]54[C@@H]76)C3)C2)c1 | 66
4.2 | 3.1 | CC[C@]1(NC(=O)c2cc(Cl)c(OC)c(Cl)c2)C[C@H]2CN(CCc3c([nH]c4ccccc34)[C@@](C(=O)OC)(c3cc4c(cc3OC)N(C)[C@H]3[C@@](O)(C(=O)OC)[C@H](OC(C)=O)[C@]5(CC)C=CCN6CC[C@]43[C@@H]65)C2)C1 | 25
7.6 | 30 | CC[C@]1(NC(=O)c2ccc(C)c(NC(=O)c3ccccc3)c2)C[C@H]2CN(CCc3c([nH]c4ccccc34)[C@@](C(=O)OC)(c3cc4c(cc3OC)N(C)[C@H]3[C@@](O)(C(=O)OC)[C@H](OC(C)=O)[C@]5(CC)C=CCN6CC[C@]43[C@@H]65)C2)C1 | 240
7 | 4.5 | CC[C@]1(NC(=O)c2ccon2)C[C@H]2CN(CCc3c([nH]c4ccccc34)[C@@](C(=O)OC)(c3cc4c(cc3OC)N(C)[C@H]3[C@@](O)(C(=O)OC)[C@H](OC(C)=O)[C@]5(CC)C=CCN6CC[C@]43[C@@H]65)C2)C1 | 90
7.7 | 8.4 | CC[C@]1(NC(=O)c2ccccc2F)C[C@H]2CN(CCc3c([nH]c4ccccc34)[C@@](C(=O)OC)(c3cc4c(cc3OC)N(C)[C@H]3[C@@](O)(C(=O)OC)[C@H](OC(C)=O)[C@]5(CC)C=CCN6CC[C@]43[C@@H]65)C2)C1 | 75
0.6 | 0.6 | CC[C@]1(NC(=O)c2ccc(OC)c(F)c2)C[C@H]2CN(CCc3c([nH]c4ccccc34)[C@@](C(=O)OC)(c3cc4c(cc3OC)N(C)[C@H]3[C@@](O)(C(=O)OC)[C@H](OC(C)=O)[C@]5(CC)C=CCN6CC[C@]43[C@@H]65)C2)C1 | 30

Structure (SMILES) | IC50 (HCT-116) [nM] | IC50 (L1210) [nM] | IC50 [1] [nM]
CCOc1ccc(C(=O)N[C@@]2(CC)C[C@H]3CN(CCc4c([nH]c5ccccc45)[C@@](C(=O)OC)(c4cc5c(cc4OC)N(C)[C@H]4[C@@](O)(C(=O)OC)[C@H](OC(C)=O)[C@]6(CC)C=CCN7CC[C@]54[C@@H]76)C3)C2)cc1 | 0.6 | 0.6 | 2.8
CC[C@]1(NC(=O)c2cccc(S(=O)(=O)F)c2)C[C@H]2CN(CCc3c([nH]c4ccccc34)[C@@](C(=O)OC)(c3cc4c(cc3OC)N(C)[C@H]3[C@@](O)(C(=O)OC)[C@H](OC(C)=O)[C@]5(CC)C=CCN6CC[C@]43[C@@H]65)C2)C1 | 30 | 40 | 570
C=CC(=O)N[C@@]1(CC)C[C@H]2CN(CCc3c([nH]c4ccccc34)[C@@](C(=O)OC)(c3cc4c(cc3OC)N(C)[C@H]3[C@@](O)(C(=O)OC)[C@H](OC(C)=O)[C@]5(CC)C=CCN6CC[C@]43[C@@H]65)C2)C1 | 6 | 7 | 520
CC[C@]1(NC(=O)c2ccc3c(c2)CCCC3)C[C@H]2CN(CCc3c([nH]c4ccc(F)cc34)[C@@](C(=O)OC)(c3cc4c(cc3OC)N(C)[C@H]3[C@@](O)(C(=O)OC)[C@H](OC(C)=O)[C@]5(CC)C=CCN6CC[C@]43[C@@H]65)C2)C1 | 6.2 | 5 | 19
CC[C@]1(O)C[C@H]2CN(CCc3c([nH]c4ccc(F)cc34)[C@@](C(=O)OC)(c3cc4c(cc3OC)N(C)[C@H]3[C@@](O)(C(=O)OC)[C@H](OC(C)=O)[C@]5(CC)C=CCN6CC[C@]43[C@@H]65)C2)C1 | 0.7 | 0.6 | 30
CC[C@]1(NC(=O)c2cccs2)C[C@H]2CN(CCc3c([nH]c4ccccc34)[C@@](C(=O)OC)(c3cc4c(cc3OC)N(C)[C@H]3[C@@](O)(C(=O)OC)[C@H](OC(C)=O)[C@]5(CC)C=CCN6CC[C@]43[C@@H]65)C2)C1 | 0.6 | 0.6 | 6.7
CCOc1ccc(C(=O)N[C@@]2(CC)C[C@H]3CN(CCc4c([nH]c5ccccc45)[C@@](C(=O)OC)(c4cc5c(cc4OC)N(C)[C@H]4[C@@](O)(C(=O)OC)[C@H](OC(C)=O)[C@]6(CC)C=CCN7CC[C@]54[C@@H]76)C3)C2)cc1OCC | 0.5 | 0.4 | 6
CC[C@]1(NC(=O)c2cccc(C)c2)C[C@H]2CN(CCc3c([nH]c4ccccc34)[C@@](C(=O)OC)(c3cc4c(cc3OC)N(C)[C@H]3[C@@](O)(C(=O)OC)[C@H](OC(C)=O)[C@]5(CC)C=CCN6CC[C@]43[C@@H]65)C2)C1 | 0.7 | 0.5 | 3
CC[C@]1(NC(=O)C2CCc3ccccc3C2)C[C@H]2CN(CCc3c([nH]c4ccccc34)[C@@](C(=O)OC)(c3cc4c(cc3OC)N(C)[C@H]3[C@@](O)(C(=O)OC)[C@H](OC(C)=O)[C@]5(CC)C=CCN6CC[C@]43[C@@H]65)C2)C1 (stereo not given in full) | 580 | 420 | 960
CC[C@]1(NC(=O)c2ccc(NS(C)(=O)=O)cc2)C[C@H]2CN(CCc3c([nH]c4ccccc34)[C@@](C(=O)OC)(c3cc4c(cc3OC)N(C)[C@H]3[C@@](O)(C(=O)OC)[C@H](OC(C)=O)[C@]5(CC)C=CCN6CC[C@]43[C@@H]65)C2)C1 | 0.3 | 0.4 | 50
CCc1ccc(C(=O)N[C@@]2(CC)C[C@H]3CN(CCc4c([nH]c5ccccc45)[C@@](C(=O)OC)(c4cc5c(cc4OC)N(C)[C@H]4[C@@](O)(C(=O)OC)[C@H](OC(C)=O)[C@]6(CC)C=CCN7CC[C@]54[C@@H]76)C3)C2)cc1 | 0.7 | 0.65 | 3.4
CC[C@]1(NC(=O)C2CCCCC2)C[C@H]2CN(CCc3c([nH]c4ccccc34)[C@@](C(=O)OC)(c3cc4c(cc3OC)N(C)[C@H]3[C@@](O)(C(=O)OC)[C@H](OC(C)=O)[C@]5(CC)C=CCN6CC[C@]43[C@@H]65)C2)C1 | 70 | 55 | 760
